Laboratory results from BindingDB's records for doi:10.1016/j.bmcl.2007.11.068 (Johnson & Johnson Pharmaceutical Research and Development, 2008).

Tests used:
[1] = target: T1, Alpha-1B adrenergic receptor (Homo sapiens, UniProt P35368)
T1 sequence (P35368 whole entry): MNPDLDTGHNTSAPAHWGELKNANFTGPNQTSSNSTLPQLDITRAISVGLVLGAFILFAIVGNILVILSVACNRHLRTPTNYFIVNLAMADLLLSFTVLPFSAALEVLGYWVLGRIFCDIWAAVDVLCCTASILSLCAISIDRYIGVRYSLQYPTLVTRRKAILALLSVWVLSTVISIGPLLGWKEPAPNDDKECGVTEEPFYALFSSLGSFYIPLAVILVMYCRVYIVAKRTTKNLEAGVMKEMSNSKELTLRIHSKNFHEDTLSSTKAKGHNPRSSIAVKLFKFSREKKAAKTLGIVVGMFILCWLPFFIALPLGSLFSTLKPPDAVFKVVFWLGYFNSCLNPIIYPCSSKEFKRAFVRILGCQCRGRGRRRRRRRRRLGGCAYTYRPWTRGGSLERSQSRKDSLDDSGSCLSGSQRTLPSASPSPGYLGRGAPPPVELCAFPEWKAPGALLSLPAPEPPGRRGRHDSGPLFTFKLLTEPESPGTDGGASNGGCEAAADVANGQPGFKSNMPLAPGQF

[2] = target: T2, Alpha-1D adrenergic receptor (Homo sapiens, UniProt P25100)
T2 sequence (P25100 whole entry): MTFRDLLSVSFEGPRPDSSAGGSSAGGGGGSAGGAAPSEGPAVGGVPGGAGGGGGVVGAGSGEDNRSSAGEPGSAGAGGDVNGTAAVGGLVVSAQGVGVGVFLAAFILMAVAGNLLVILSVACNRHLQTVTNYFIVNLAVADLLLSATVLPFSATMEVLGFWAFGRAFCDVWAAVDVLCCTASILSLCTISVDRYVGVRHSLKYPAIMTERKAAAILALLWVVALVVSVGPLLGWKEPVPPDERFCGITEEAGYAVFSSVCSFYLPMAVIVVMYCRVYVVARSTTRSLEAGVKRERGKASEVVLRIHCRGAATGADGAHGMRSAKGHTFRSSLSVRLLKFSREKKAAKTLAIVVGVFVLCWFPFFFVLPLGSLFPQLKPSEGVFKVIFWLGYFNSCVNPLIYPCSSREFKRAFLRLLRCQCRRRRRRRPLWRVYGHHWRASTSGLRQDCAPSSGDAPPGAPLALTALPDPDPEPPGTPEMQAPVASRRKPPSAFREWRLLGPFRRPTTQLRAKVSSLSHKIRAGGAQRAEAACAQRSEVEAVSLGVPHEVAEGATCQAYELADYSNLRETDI

Compound: CCOc1ccccc1OCCNC(C)Cc1ccc(OC)c(S(N)(=O)=O)c1 (configuration not stated) [NSC_60147]
- Ki [1]: 2 nM
- Ki [2]: 0.2 nM
